Assays:
[1] = test system: retinal vasculature of diabetic rats; assay: Retinal vessel diameters, mean circulation time and retinal blood flow in STZ-diabetic rats (video fluorescein angiography); format: in vivo, Sprague Dawley rats
Description: FIGS. 2A and 2B are graphs showing normalized retinal blood flow (FIG. 2A) and increased blood vessel diameter (FIG. 2B) following ASP-440 administration in diabetic rats.
We examined the effect of ASP-440 on retinal vessel diameters, mean circulation times (MCT), and retinal blood flow (RBF) in rats with diabetes. Diabetes was induced in Sprague Dawley rats with an intraperitoneal injection of 55 mg/kg of streptozotocin (STZ) (Sigma, St. Louis, Mo., USA) in 10 mmol/l citrate buffer, pH 4.5 after a 12 h fast. Diabetes was confirmed with blood glucose measurements (>14 mmol/l) 24 h after STZ injection. The rats were housed under standard conditions with free access to water and standard food. Two weeks after diabetes onset rats were implanted with a subcutaneous osmotic model 2002 Alzet pump containing either 12 mg/ml ASP-440 or saline vehicle. Rats were infused for 2 weeks at a rate of 0.5 μg/hr. Retinal vessel diameters and MCT was measured after 4 weeks of total diabetes duration and RBF was calculated as described by Horio et al. (Diabetologia 47:113-23, 2004).
To make the measurements described above, the following procedure was used. […] The recorded fluorescein angiograms were digitized on a frame-by-frame basis and analyzed densitometrically to determine retinal vessel diameters and retinal mean circulation times (MCTs), as described by Horio et al. (supra). […] Vessel diameters in units of pixels were determined during peak fluorescein arterial and venous filling times at the defined vessel sample sites using a boundary-crossing algorithm. The average diameter for each vessel was measured for each sample site. […] At the fixed vessel sites, the average vessel fluorescence within a sample area defined by the vessel width was measured on a frame-by-frame basis to generate temporal fluorescence intensity or dye dilution curves. The resultant artery and vein fluorescence data were fit to a log normal distribution function from which average arterial and venous circulation times were calculated. […]

[2] = test system: Ang-II-induced hypertension; assay: BP-lowering effect in Ang-II-induced rat hypertension model (telemetry); format: in vivo; settings: rats infused with Ang-II 300 ng/kg/min; ASP-440 16 ƒg/kg/hr by subcutaneous osmotic pump; vs Ang-II alone
Excerpt: FIG. 1 is a graph showing the time course of systolic blood pressure (SBP) measured using telemetry in rats infused with Ang-II in the absence or presence of ASP-440. * and † indicate p<0.05 for Day 0 vs Ang-II alone (n=4) and Ang-II+ASP-440 (n=7), respectively. ‡ indicates p<0.05 for Ang-II alone vs Ang-Il^+ ASP-440. NS indicates statistically non-significant change from Day 0.
Rats were infused continuously with Ang-II, and concurrently with either ASP-440 or vehicle control. Treatments were achieved by the use of subcutaneous implantation of two sets of Alzet mini-osmotic pumps (DURECT corporation, Cupertino Calif.), one containing Ang-II, the other containing either ASP-440 or vehicle control. Angll (EMD Chemicals Inc, La Jolla, Calif.) was delivered at 300 ng/kg/min. ASP-440 was delivered at 16 ƒg/kg/hr, and control pumps were filled with vehicle (10% polyethylene glycol, 90% phosphate-buffered saline).
Blood pressure measurements by telemetry were performed using PA-C40 transmitters (Data Sciences International, St. Paul, Minn.). […] Rats were housed individually on a receiver pad and blood pressure was monitored continuously. […] Baseline readings (Day 0) were obtained 48 hours after catheter implantation, following implantation of Alzet mini-pumps.

[3] = 2 weeks subcutaneous pump infusion (12 mg/ml ASP-440), vs diabetic rats receiving vehicle

Compound: N=C(N)c1ccc(CNC(=O)c2cnn(Cc3ccccc3)c2)cc1 [ASP-440, 1-Benzyl-1H-pyrazole-4-carboxylic acid 4-carbamimidoyl-benzylamide]
- retinal blood flow (RBF) [1, 3]: increased RBF
- retinal mean circulation time (MCT) [1, 3]: shortened MCT
- retinal artery and vein diameters ([1]; 2 weeks subcutaneous pump infusion, vs nondiabetic rats and saline-treated diabetic rats): increased retinal artery and vein diameters
- blood pressure (systolic, telemetry) [2]: capable of reducing blood pressure

— patent US20140348850A1, “METHOD FOR REDUCING BLOOD PRESSURE USING INHIBITORS OF PLASMA KALLIKREIN” (JOSLIN DIABETES CENTER, priority 2008, published 2014)
